Results: patent US10508085B2, “Compounds and methods for IDO and TDO modulation, and indications therefor” (Plexxikon Inc., priority 2016, dated 2019)
Read-outs that look alike come from different tables or passages of the source.

How the values were obtained:
[1] = target: T1, Human Indoleamine 2,3-dioxygenase (IDO) (Homo sapiens, UniProt P14902); test: Human IDO enzymatic assay (kynurenine level); type: biochemical; conditions: 6 nM IDO, 10 μM L-Trp; geometric mean; read-out: IDO1 GMean: IC50 (μM) (Biochemical Assay)
T1 construct: His tag (N); made in house; host or cells: E. coli
T1 sequence (P14902 whole entry): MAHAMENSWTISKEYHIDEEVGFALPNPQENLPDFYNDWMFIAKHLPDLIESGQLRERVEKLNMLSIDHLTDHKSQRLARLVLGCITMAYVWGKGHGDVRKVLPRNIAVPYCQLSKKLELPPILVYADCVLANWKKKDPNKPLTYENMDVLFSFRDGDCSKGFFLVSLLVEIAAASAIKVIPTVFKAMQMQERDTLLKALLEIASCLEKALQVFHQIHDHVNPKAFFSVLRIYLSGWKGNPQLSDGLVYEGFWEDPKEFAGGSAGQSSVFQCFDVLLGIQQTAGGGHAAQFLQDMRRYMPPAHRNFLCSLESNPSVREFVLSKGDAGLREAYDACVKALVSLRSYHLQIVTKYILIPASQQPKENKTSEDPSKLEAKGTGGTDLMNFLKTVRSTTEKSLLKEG
Method in brief: (§1)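 IDO conditions: 6 nM His-IDO, 10 μM L-Trp, 5 μM methylene blue, 20 min, RT. TDO conditions: 1 nM His-TDO, 350 μM L-Trp, 0.4 μM methylene blue, 70 min, RT. Both used pH 6.5 phosphate plus ascorbate/catalase, TCA stop at 50° C, kynurenine readout, nonlinear-regression IC50.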

[2] = target: T2, Human Tryptophan 2,3-dioxygenase (TDO) (Homo sapiens, UniProt P48775); test: Human TDO enzymatic assay (kynurenine level); type: biochemical; conditions: 1 nM TDO, 350 μM L-Trp; geometric mean; read-out: TDO GMean: IC50 (μM) (Biochemical Assay)
T2 construct: His tag (N); made in house; host or cells: E. coli
T2 sequence (P48775 whole entry): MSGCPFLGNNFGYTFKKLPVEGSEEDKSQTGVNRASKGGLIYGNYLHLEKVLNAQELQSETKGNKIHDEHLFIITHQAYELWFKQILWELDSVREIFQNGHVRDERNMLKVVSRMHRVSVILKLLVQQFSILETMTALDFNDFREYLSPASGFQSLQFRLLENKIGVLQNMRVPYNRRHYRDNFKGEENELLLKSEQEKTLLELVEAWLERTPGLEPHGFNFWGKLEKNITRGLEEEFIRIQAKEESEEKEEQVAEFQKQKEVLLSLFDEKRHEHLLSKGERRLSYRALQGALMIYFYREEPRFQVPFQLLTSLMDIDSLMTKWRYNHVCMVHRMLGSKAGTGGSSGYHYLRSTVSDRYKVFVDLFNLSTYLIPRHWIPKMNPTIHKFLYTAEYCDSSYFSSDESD
Method in brief: as §1

[3] = target: T3, human IDO (IDO1-expressing HEK293 cells) (Homo sapiens, UniProt P14902); test: Cell based kynurenine assay, IDO1-expressing HEK293 cell clones; conditions: IDO1-expressing HEK293 cells, geometric mean, read-out: HEK293 IDO1 Kynurenine GMean IC50 (μM) (Cellular Assay)
T3 construct: expressed in transfected cells
T3 sequence (P14902 whole entry): as the sequence (P14902 whole entry) above
Method in brief: (§2)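 Steps: seed IDO1- or TDO-expressing HEK293 cells at 2.5×10^4 per well; add compound dilutions; incubate 24 h; transfer supernatant and determine kynurenine; derive IC50 via nonlinear regression of percent inhibition.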

[4] = target: T4, human TDO (TDO-expressing HEK293 cells) (Homo sapiens, UniProt P48775); test: Cell based kynurenine assay, TDO-expressing HEK293 cell clones; conditions: TDO-expressing HEK293 cells, geometric mean, read-out: HEK293 TDO Kynurenine GMean IC50 (μM) (Cellular Assay)
T4 construct: expressed in transfected cells
T4 sequence (P48775 whole entry): as the sequence (P48775 whole entry) above
Method in brief: as §2

CNC(=O)N1CCC(C(C)(C)[C@H](O)c2c(F)c(Cl)cc3cn[nH]c23)CC1 [Compound P-0508, (S)-4-(1-(5-chloro-6-fluoro-1H-indazol-7-yl)-1-hydroxy-2-methylpropan-2-yl)-N-methylpiperidine-1-carboxamide]
IC50 [1]: 0.0001 to 10 µM
IC50 [2]: 0.0001 to 10 µM
IC50 ([3]; 24 hours): 0.0001 to 10 µM
IC50 ([4]; 24 hours): 0.0001 to 10 µM

O=C(CN1CCCS1(=O)=O)N1CCC(C(F)(F)C(O)c2cc(Cl)cc3cn[nH]c23)CC1 (stereo not shown) [Compound P-0489, 1-(4-(2-(5-chloro-1H-indazol-7-yl)-1,1-difluoro-2-hydroxyethyl)piperidin-1-yl)-2-(1,1-dioxidoisothiazolidin-2-yl)ethan-1-one]
IC50 [1]: 0.0001 to 10 µM
IC50 [2]: 0.0001 to 10 µM
IC50 ([3]; 24 hours): 0.0001 to 10 µM
IC50 ([4]; 24 hours): 0.0001 to 10 µM

CC(C)(C1CCN(C(=O)C2CC2)CC1)[C@H](O)c1c(F)c(Cl)cc2cn[nH]c12 [Compound P-0504, (S)-(4-(1-(5-chloro-6-fluoro-1H-indazol-7-yl)-1-hydroxy-2-methylpropan-2-yl)piperidin-1-yl)(cyclopropyl) methanone]
IC50 [1]: 0.0001 to 10 µM
IC50 [2]: 0.0001 to 10 µM
IC50 ([3]; 24 hours): 0.0001 to 10 µM
IC50 ([4]; 24 hours): 0.0001 to 10 µM

CCOC(=O)N1CCC(C(C)(C)C(O)c2cc(Cl)cc3cn[nH]c23)CC1 (stereo not shown) [Compound P-0322, ethyl 4-(1-(5-chloro-1H-indazol-7-yl)-1-hydroxy-2-methylpropan-2-yl)piperidine-1-carboxylate]
IC50 [1]: 0.0001 to 10 µM
IC50 [2]: 0.0001 to 10 µM
IC50 ([3]; 24 hours incubation): 0.0001 to 10 µM
IC50 ([4]; 24 hours incubation): 0.0001 to 10 µM

O=S(=O)(NC1CC(O)(c2cc(Cl)cc3cn[nH]c23)C1)c1ccccc1 (stereo not shown) [Compound P-0044, N-(3-(5-chloro-1H-indazol-7-yl)-3-hydroxycyclobutyl)benzenesulfonamide]
IC50 [1]: 100 to 200 µM
IC50 [2]: 10 to 100 µM
IC50 ([3]; 24 hours incubation): > 10 µM
IC50 ([4]; 24 hours incubation): > 10 µM

CC1(C(O)c2cc(F)cc3cn[nH]c23)CCCCC1 (stereo not shown) [Compound P-0041, (5-fluoro-1H-indazol-7-yl)(1-methylcyclohexyl)methanol]
IC50 [1]: 0.0001 to 10 µM
IC50 [2]: 0.0001 to 10 µM
IC50 ([3]; 24 hours incubation): 0.0001 to 10 µM
IC50 ([4]; 24 hours incubation): 0.0001 to 10 µM

CC1(C(O)c2cc(Cl)cc3cn[nH]c23)CCCC1 (stereo not shown) [Compound P-0021, (5-chloro-1H-indazol-7-yl)(1-methylcyclopentyl)methanol]
IC50 [1]: 0.0001 to 10 µM
IC50 [2]: 0.0001 to 10 µM
IC50 ([3]; 24 hours incubation): 0.0001 to 10 µM
IC50 ([4]; 24 hours incubation): 0.0001 to 10 µM

CC(C)(C1CCN(S(=O)(=O)C2CC2)CC1)C(O)c1cc(Cl)cc2cn[nH]c12 (stereo not shown) [Compound P-0306]
IC50 [1]: 0.0001 to 10 µM
IC50 [2]: 0.0001 to 10 µM
IC50 ([3]; 24 hours incubation): 0.0001 to 10 µM
IC50 ([4]; 24 hours incubation): 0.0001 to 10 µM

CC(=O)N1CCC(C(C)(C)[C@@H](O)c2cc(Cl)cc3cn[nH]c23)CC1 [Compound P-0422, (R)-1-(4-(1-(5-chloro-1H-indazol-7-yl)-1-hydroxy-2-methylpropan-2-yl)piperidin-1-yl)ethan-1-one]
IC50 [1]: 0.0001 to 10 µM
IC50 [2]: 0.0001 to 10 µM
IC50 ([3]; 24 hours): 0.0001 to 10 µM
IC50 ([4]; 24 hours): 0.0001 to 10 µM

CC(C)(C1CCN(C(=O)CN2CCCS2(=O)=O)CC1)C(O)c1cc(Cl)cc2cn[nH]c12 (stereo not shown) [Compound P-0486, 1-(4-(1-(5-chloro-1H-indazol-7-yl)-1-hydroxy-2-methylpropan-2-yl)piperidin-1-yl)-2-(1,1-dioxidoisothiazolidin-2-yl)ethan-1-one]
IC50 [1]: 0.0001 to 10 µM
IC50 [2]: 0.0001 to 10 µM
IC50 ([3]; 24 hours): 0.0001 to 10 µM
IC50 ([4]; 24 hours): 0.0001 to 10 µM

CC1(C(O)c2cc(Cl)cc3cn[nH]c23)CC2CC2C1 (stereo not shown) [Compound P-0228, (5-chloro-1H-indazol-7-yl)(3-methylbicyclo[3.1.0]hexan-3-yl)methanol]
IC50 [1]: 0.0001 to 10 µM
IC50 [2]: 0.0001 to 10 µM
IC50 ([3]; 24 hours incubation): 0.0001 to 10 µM
IC50 ([4]; 24 hours incubation): 0.0001 to 10 µM

COCCNC(=O)N1CCC(C(C)(C)C(O)c2c(F)c(Cl)cc3cn[nH]c23)CC1 (stereo not shown) [Compound P-0419, 4-(1-(5-chloro-6-fluoro-1H-indazol-7-yl)-1-hydroxy-2-methylpropan-2-yl)-N-(2-methoxyethyl) piperidine-1-carboxamide]
IC50 [1]: 0.0001 to 10 µM
IC50 [2]: 0.0001 to 10 µM
IC50 ([3]; 24 hours): 0.0001 to 10 µM
IC50 ([4]; 24 hours): 0.0001 to 10 µM

CC(C)(C1CCC1)C(O)c1c(F)c(Cl)c(F)c2cn[nH]c12 (stereo not shown) [Compound P-0251, 1-(5-chloro-4,6-difluoro-1H-indazol-7-yl)-2-cyclobutyl-2-methylpropan-1-ol]
IC50 [1]: 0.0001 to 10 µM
IC50 [2]: 0.0001 to 10 µM
IC50 ([3]; 24 hours incubation): 0.0001 to 10 µM
IC50 ([4]; 24 hours incubation): 0.0001 to 10 µM
